This note sets out measurements from the NIST ThermoML archive (doi:10.1016/j.tca.2005.04.002).

Numbers after ± are expanded uncertainties.

This data set is described as follows: mn = molality of the nth substance listed, in mol/kg. The settings on record: 298.15 K; 101.33 kPa; Liquid; Calvet calorimetry; m1 = 0.1.

`NCC(=O)O` [2-aminoacetic acid] + O: the “molar enthalpy of solution” value was found to be 3.38 ± 0.0526 kcal/mol.

Regarding `C[C@H](N)C(=O)O` [(S)-2-aminopropanoic acid] + O, the “molar enthalpy of solution” value stood at 1.86 ± 0.0359 kcal/mol.

As to `N[C@@H](CO)C(=O)O` [L-serine] + O, the “molar enthalpy of solution” value turned out to be 2.69 ± 0.0454 kcal/mol.
